These results are taken from patent US20240158438A1, “POLYPEPTIDE COMPOUND AND APPLICATION THEREOF” (CHENGDU SINTANOVO BIOTECHNOLOGY CO., LTD., priority 2021, published 2024).

Structures are written as SMILES. pIC50: −log10 of the molar value. Starred links: 1 amine or outer side, 2 acyl side, 3 side chain; linkers in the order of their positions; H or OH if unused. Non-standard residues stand in square brackets, D forms with d. Residues, ends and D or L forms follow the SMILES beside them. *: point of attachment. X6 = O=C(C1[C@H]2CC[C@H](C2)N1[*:1])[*:2]; X5 = NC12CC3CC(C1)CC(CC(=O)*)(C3)C2; dBta = N[C@H](Cc1csc2ccccc12)C(=O)O; dCit = NC(=O)NCCC[C@@H](N)C(=O)O; X7 = O=C([C@@]12CNC[C@@H]1C2)*; Ac4c(3-oxa) = NC1(C(=O)O)COC1; Tle = CC(C)(C)[C@H](N)C(=O)O; X1 = N[C@H]1CCC[C@H]1C(=O)*; dNle = CCCC[C@@H](N)C(=O)O; Nle = CCCC[C@H](N)C(=O)O; dAbu = CC[C@@H](N)C(=O)O; Api = NC1(C(=O)O)CCNCC1; X4 = O=C([C@H]1CNCCO1)*; dAze = O=C(O)[C@H]1CCN1; X3 = NCC1(C(=O)*)CCC1 Where only a bound is given, the exact number is not on record here.

Broadly, the pIC50 is the IC50 on a negative log10 scale, so that one unit is a factor of ten.

The assay deals with GHSR-1a (Homo sapiens (Human), UniProt Q92847). Nature of the assay: Agonistic activity for GHSR-1a, FLIPR calcium assay. It counts as cell-based. Conditions: agonist activity assay, Flp In-CHO-GHSR Stable Pool cells, FLIPR calcium 6 kit; read-out: The activity (IC50) of polypeptide compounds for GHSR-1a. The text has this: The use of recombinant expression of GHSR provides several advantages; for example, the receptor can be expressed in a determined cell system, so that it is easier to distinguish between the reactions of the compounds with GHSR and the reactions with other receptors. For example, cell lines such as HEK293, COS7 and CHO that […] can be used to express GHSR, and the same cell lines without expression vectors are used as controls.
Chain of GHSR-1a (Q92847 whole entry): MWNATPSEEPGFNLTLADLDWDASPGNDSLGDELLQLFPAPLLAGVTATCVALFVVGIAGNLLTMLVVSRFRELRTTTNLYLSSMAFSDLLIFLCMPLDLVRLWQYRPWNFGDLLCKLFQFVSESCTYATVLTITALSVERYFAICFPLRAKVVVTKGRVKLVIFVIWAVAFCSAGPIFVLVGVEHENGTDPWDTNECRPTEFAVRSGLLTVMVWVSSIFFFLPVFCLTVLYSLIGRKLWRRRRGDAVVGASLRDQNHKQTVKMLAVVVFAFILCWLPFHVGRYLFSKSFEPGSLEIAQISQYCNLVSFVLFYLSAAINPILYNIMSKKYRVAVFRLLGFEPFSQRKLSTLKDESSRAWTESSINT
The activity of GHSR-1a can be measured using different techniques, for example, by detecting the change in the intracellular conformation of GHSR, the change in G-protein coupling activity, and/or the change in intracellular messengers. Techniques such as measuring intracellular Ca^2+ are preferably used to measure the activity of GHSR-1a. Examples of techniques known in the art that can be used to measure Ca^2+ include the use of FLIPR® calcium ion assay kits, among others. The FLIPR® calcium ion assay kits use a calcium ion sensitive indicator and a masking dye to ensure that a researcher carries out high-sensitivity fluorescent screening for G protein-coupled receptors, ion channels and other calcium ion sensitive targets. This experiment used FLIPR calcium 6 assay kits and FLIPR calcium 6-QF assay kits.
• a) Cell line: Flp In-CHO-GHSR Stable Pool; • b) Complete medium: F12K+10% fetal bovine serum+1×penicillin-streptomycin (PS)+600 μg/mL hygromycin B; • c) Cell seeding medium: F12K+10% fetal bovine serum. • d) Assay buffer: 1× HBSS+20 mM HEPES. • e) […] component A: Assay buffer and component A were left at room temperature (RT), 10 mL of buffer was added to component A, and the mixture was vortexed for 1-2 min and stored at −20° C.
• a) Compound stock solutions: the powders from in-house synthesis were made into 10 mM stock solutions in DMSO according to the standard protocol. • b) Compound storage: all compounds in DMSO were stored in room temperature desiccators for short-term storage (at most 4 months). The remaining compounds were left at −20 ° C. for long-term storage.
• a) Flp In-CHO-GHSR Stable Pool cells were cultured in complete medium. • b) The cells were placed in […] cell seeding medium in a 384-well cell culture plate (Corning, 3764) at 7k cells/well and cultured overnight at 37° C. with 5% CO2. • c) 20× component A was thawed at room temperature, diluted with assay buffer to 2×, and left at RT. • d) The Petri dish was taken out of the incubator and equilibrated at room temperature for 10 min. The medium was changed to […]. After the final wash, 20 μL of buffer was kept in each well, 20 μL of 2× component A was then added to each well, and the plate was incubated at 37° C. for 3-5 s. • e) 10 μL of 5× compound was added to the 384-well cell culture plate, and data collection was immediately performed using FLIPR Tetra.
• 1) Z′ factor=1−3×(SDMax+SDMin)/(MeanMax−MeanMin); • 2) CVMax=(SDMax/MeanMax)×100%; • 3) CVMin=(SDMin/MeanMin)×100%; • 4) S/B=Singal/Background; • 5) Calculation formula for IC50: • Y=Bottom+(Top−Bottom)/(1+10^((LogIC50−X)×HillSlope)) • X: log value of compound concentration; Y: Activation % or Inhibition %
As for `NC(=O)[C@H](Cc1ccccc1)NC(=O)[C@@H](Cc1c[nH]c2ccccc12)NC(=O)[C@@H](Cc1csc2ccccc12)NC(=O)C1(N)COC1` [Compound 74] (H-[Ac4c(3-oxa)][dBta][dW]F-NH2), the pIC50 is 7.76.
The figure for `CC(=O)N[C@@H](CCCCN)C(=O)N[C@H](Cc1csc2ccccc12)C(=O)N[C@H](Cc1c[nH]c2ccccc12)C(=O)N[C@@H](Cc1ccccc1)C(=O)N[C@H](CCCCN)C(N)=O` [Compound 38] (Ac-K[dBta][dW]F[dK]-NH2) is 6.40; for `N=C(N)NCCC[C@@H](NC(=O)[C@H](Cc1ccccc1)NC(=O)[C@@H](Cc1c[nH]c2ccccc12)NC(=O)[C@@H](Cc1csc2ccccc12)NC(=O)C1N[C@@H]2CC[C@H]1C2)C(N)=O` (some centres unmarked) [Compound 69] (H-[X6][dBta][dW]F[dR]-NH2) it is 7.40.
`NCCCC[C@@H](NC(=O)[C@H](Cc1ccccc1)NC(=O)[C@@H](Cc1c[nH]c2ccccc12)NC(=O)[C@@H](Cc1csc2ccccc12)NC(=O)[C@H](N)CCCNC(N)=O)C(N)=O` [Compound 31] (H-[dCit][dBta][dW]F[dK]-NH2): the pIC50 was 7.68.
On to `N=C(N)NCCC[C@@H](NC(=O)[C@H](Cc1ccccc1)NC(=O)[C@@H](Cc1c[nH]c2ccccc12)NC(=O)[C@@H](Cc1csc2ccccc12)NC(=O)C1(CN)CCC1)C(N)=O` [Compound 62] (X3-[dBta][dW]F[dR]-NH2), for which the pIC50 was 7.52.
In the case of `N=C(N)NCCC[C@@H](N)C(=O)N[C@H](Cc1csc2ccccc12)C(=O)N[C@H](Cc1c[nH]c2ccccc12)C(=O)N[C@@H](Cc1ccccc1)C(=O)NC1(C(N)=O)CCNCC1` [Compound 9] (H-[dR][dBta][dW]F[Api]-NH2) it was 6.99; in that of `CCCC[C@H](N)C(=O)N[C@H](Cc1csc2ccccc12)C(=O)N[C@H](Cc1c[nH]c2ccccc12)C(=O)N[C@@H](Cc1ccccc1)C(=O)N[C@H](CCCCN)C(N)=O` [Compound 50] (H-[Nle][dBta][dW]F[dK]-NH2), 7.17.
Take `NC(=O)[C@H](Cc1ccccc1)NC(=O)[C@@H](Cc1c[nH]c2ccccc12)NC(=O)[C@@H](Cc1csc2ccccc12)NC(=O)C1CNC1` [Compound 73]: the pIC50 is 7.80.
The figure for `NCCCC[C@@H](NC(=O)[C@H](Cc1ccccc1)NC(=O)[C@@H](Cc1c[nH]c2ccccc12)NC(=O)[C@@H](Cc1csc2ccccc12)NC(=O)[C@@]12CNC[C@@H]1C2)C(N)=O` [Compound 60] (X7-[dBta][dW]F[dK]-NH2) is 7.65.
The figure for `CCCC[C@@H](NC(=O)C1(NC(=O)[C@H](Cc2ccccc2)NC(=O)[C@@H](Cc2c[nH]c3ccccc23)NC(=O)[C@@H](Cc2csc3ccccc23)NC(=O)[C@H](N)CC)CCNCC1)C(N)=O` [Compound 83] (H-[dAbu][dBta][dW]F[Api][dNle]-NH2) is 7.91; for `C[C@@H](N)C(=O)N[C@H](Cc1csc2ccccc12)C(=O)N[C@H](Cc1c[nH]c2ccccc12)C(=O)N[C@@H](Cc1ccccc1)C(=O)N[C@H](CCCCN)C(N)=O` [Compound 42] (H-[dA][dBta][dW]F[dK]-NH2) it is 7.40; for `CC(=O)N[C@H](CCCNC(N)=O)C(=O)N[C@H](Cc1csc2ccccc12)C(=O)N[C@H](Cc1c[nH]c2ccccc12)C(=O)N[C@@H](Cc1ccccc1)C(=O)N[C@H](CCCCN)C(N)=O` [Compound 36] (Ac-[dCit][dBta][dW]F[dK]-NH2) it is 6.91.
The figure for `NC(=O)[C@H](Cc1ccccc1)NC(=O)[C@@H](Cc1c[nH]c2ccccc12)NC(=O)[C@@H](Cc1csc2ccccc12)NC(=O)[C@H]1CCN1` [Compound 75] (H-[dAze][dBta][dW]F-NH2) is 7.91; for `CC(C)(C)[C@H](N)C(=O)N[C@H](Cc1csc2ccccc12)C(=O)N[C@H](Cc1c[nH]c2ccccc12)C(=O)N[C@@H](Cc1ccccc1)C(=O)NC1(C(N)=O)CCNCC1` [Compound 18] (H-[Tle][dBta][dW]F[Api]-NH2) it is 7.63; for `CC(=O)N[C@H](CCCCN)C(=O)N[C@H](Cc1csc2ccccc12)C(=O)N[C@H](Cc1c[nH]c2ccccc12)C(=O)N[C@@H](Cc1ccccc1)C(=O)N[C@H](CCCCN)C(N)=O` [Compound 37] (Ac-[dK][dBta][dW]F[dK]-NH2) it is 6.54.
Turning to `NC(=O)C1(NC(=O)[C@H](Cc2ccccc2)NC(=O)[C@@H](Cc2c[nH]c3ccccc23)NC(=O)[C@@H](Cc2csc3ccccc23)NC(=O)[C@H]2CNCCO2)CCNCC1` [Compound 27] (X4-[dBta][dW]F[Api]-NH2), the pIC50 is 7.48.
In the case of `CC(=O)N[C@@H](CCCCN)C(=O)N[C@H](Cc1csc2ccccc12)C(=O)N[C@H](Cc1c[nH]c2ccccc12)C(=O)N[C@@H](Cc1ccccc1)C(=O)NC1(C(N)=O)CCNCC1` [Compound 8] (Ac-K[dBta][dW]F[Api]-NH2), the pIC50 is below 6.00.
Take `NC(=O)C1(NC(=O)[C@H](Cc2ccccc2)NC(=O)[C@@H](Cc2c[nH]c3ccccc23)NC(=O)[C@@H](Cc2csc3ccccc23)NC(=O)CC23CC4CC(CC(N)(C4)C2)C3)CCNCC1` [Compound 28] (X5-[dBta][dW]F[Api]-NH2): the negative-log IC50 (pIC50) was 7.27.
For `NCCCC[C@@H](N)C(=O)N[C@H](Cc1csc2ccccc12)C(=O)N[C@H](Cc1c[nH]c2ccccc12)C(=O)N[C@@H](Cc1ccccc1)C(=O)N[C@H](CCCCN)C(N)=O` [Compound 34] (H-[dK][dBta][dW]F[dK]-NH2), the pIC50 was 7.11.
In the case of `N=C(N)NCCC[C@@H](NC(=O)[C@H](Cc1ccccc1)NC(=O)[C@@H](Cc1c[nH]c2ccccc12)NC(=O)[C@@H](Cc1csc2ccccc12)NC(=O)[C@@H]1CCC[C@@H]1N)C(N)=O` [Compound 61] (X1-[dBta][dW]F[dR]-NH2) it was 7.69.
In the case of `NCCCC[C@@H](N)C(=O)N[C@H](Cc1csc2ccccc12)C(=O)N[C@H](Cc1c[nH]c2ccccc12)C(=O)N[C@@H](Cc1ccccc1)C(=O)NC1(C(N)=O)CCNCC1` [Compound 4] (H-[dK][dBta][dW]F[Api]-NH2) it was 5.95.
The figure for `CC(=O)NCCCC[C@@H](N)C(=O)N[C@H](Cc1csc2ccccc12)C(=O)N[C@H](Cc1c[nH]c2ccccc12)C(=O)N[C@@H](Cc1ccccc1)C(=O)NC1(C(N)=O)CCNCC1` [Compound 10] (H-[dK](Ac)[dBta][dW]F[Api]-NH2) is 6.65; for `NC(=O)[C@H](Cc1ccccc1)NC(=O)[C@@H](Cc1c[nH]c2ccccc12)NC(=O)[C@@H](Cc1csc2ccccc12)NC(=O)CC12CC3CC(CC(N)(C3)C1)C2` [Compound 78] it is 7.11.
For the compound `CCCC[C@@H](N)C(=O)N[C@H](Cc1csc2ccccc12)C(=O)N[C@H](Cc1c[nH]c2ccccc12)C(=O)N[C@@H](Cc1ccccc1)C(=O)N[C@H](CCCCN)C(N)=O` [Compound 49] (H-[dNle][dBta][dW]F[dK]-NH2), the pIC50 was 7.23.
In the case of `NC(=O)C1(NC(=O)[C@H](Cc2ccccc2)NC(=O)[C@@H](Cc2c[nH]c3ccccc23)NC(=O)[C@@H](Cc2csc3ccccc23)NC(=O)C2N[C@@H]3CC[C@H]2C3)CCNCC1` (some centres unmarked) [Compound 29] (H-[X6][dBta][dW]F[Api]-NH2) it was 7.88.
The figure for `CCCC[C@@H](NC(=O)[C@@H](CCCCN)NC(=O)[C@H](Cc1ccccc1)NC(=O)[C@@H](Cc1c[nH]c2ccccc12)NC(=O)[C@@H](Cc1csc2ccccc12)NC(=O)[C@H](N)CC)C(=O)N[C@H](C)C(N)=O` [Compound 82] (H-[dAbu][dBta][dW]F[dK][dNle][dA]-NH2) is 8.05.
